The record followed here is ChEMBL document CHEMBL4376819, “The Rise of Molecules Able To Regenerate the Central Nervous System” (J Med Chem, 2020).

Series [1] can be described thus: Half life in mouse plasma at 10 umol/L measured up to 4 hrs by mass spectrometry. In kind it is ADME, cell-free.
The nature of series [2]: Induction of neurite growth in rat hippocampal neurons incubated for 48 hrs by high content analysis. In kind it is functional, cell-based. As to conditions: Hippocampal neurone.
A further series relates to Rattus norvegicus. Nature of the series: Induction of optic nerve axon regeneration in Sprague-Dawley rat model of optic nerve crush injury assessed as increase in average length of the longest regenerating axons at 100 uM administered intravitreally on day 3,7 and 10 post injury and measured on day 13 post injury by Alexa Fluor 488/CTB-488 staining based confocal microscopic analysis relative to control. It counts as functional.

A short description of series [3]: Induction of rat DRG neuron growth assessed as increase in total neurite length at 1 uM incubated for 24 hrs by […] staining based assay relative to control. In kind it is functional.
Series [4] can be described thus: Induction of CSPG-treated C57BL/6J mouse DRG neuron growth at 25 uM incubated for 24 hrs by Alexa Fluor 488 staining based assay relative to control. In kind it is functional.
Series [5] in a line: Induction of CSPG-treated human induced sensory neuron growth at 2 uM for 24 hrs by immunostaining method relative to control. In kind it is functional.

`COc1ccc(O)c(C(=O)c2ccc(C(=O)O[C@@H]3CCCNC[C@H]3NC(=O)c3ccncc3)cc2)c1F` came in with a half-life at 10 µM in series [1] below 1 min. `O=S(=O)(c1cccc2c(I)cccc12)N1CCCNCC1` returned an EC50 in series [2] of 74 nM. Consider `Cc1ccc(-c2nc(NCCOCCOCCN)nc(N3CCN(c4ccccn4)CC3)n2)cc1`, for which the Activity in the series on Rattus norvegicus came out at 56%; in series [3], 50%. Regarding `COc1ccc([C@@H]2Sc3ccccc3N(CCN(C)C)C(=O)[C@@H]2OC(C)=O)cc1` [DILTIAZEM], the “fold change (FC)” value in series [4] came to 2; in series [5], 1.5.
